Experimental findings from article PMC3319563 (PLoS ONE, 2012) are described below.

The target of data set [1] is T1, AtuGSTH1-1 (Agrobacterium fabrum, UniProt A9CFJ9).
T1 construct: gene Atu3701; homodimer by crystal symmetry
T1 sequence (A9CFJ9 1-230): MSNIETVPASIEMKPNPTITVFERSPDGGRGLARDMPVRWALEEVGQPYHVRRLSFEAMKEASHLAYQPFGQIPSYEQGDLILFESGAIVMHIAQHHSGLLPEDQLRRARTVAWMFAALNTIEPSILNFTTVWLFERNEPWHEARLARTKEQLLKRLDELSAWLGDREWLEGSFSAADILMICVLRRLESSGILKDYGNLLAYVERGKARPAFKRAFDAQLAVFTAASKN
Nature of the data set: steady-state kinetics, GST assay. The class given is biochemical. The settings on record: co-substrate GSH; 0.1 M potassium phosphate pH 6.5, 37 °C; read-out: Κm. An excerpt:
steady-state kinetics, GST assay on AtuGSTH1-1

For data set [2], the target named is T2, AtuGSTH1-1 (Agrobacterium fabrum, UniProt A9CFJ9, S25A).
T2 construct: gene Atu3701
The following applies: read-out: Km, (mM) (CDNB) / Km, (mM) (CuOOH); co-substrate GSH.

In data set [3] the target is T3, AtuGSTH1-1 (Agrobacterium fabrum, UniProt A9CFJ9, R187A).
T3 construct: gene Atu3701
The settings on record: read-out: Km, (mM) (CDNB) / Km, (mM) (CuOOH); co-substrate GSH.

Data set [4] has as its target T4, AtuGSTH1-1 (Agrobacterium fabrum, UniProt A9CFJ9, F22A).
T4 construct: gene Atu3701
The settings on record: read-out: Km, (mM) (CDNB) / Km, (mM) (CuOOH); co-substrate GSH.

In data set [5] the target is T1, AtuGSTH1-1. Put plainly: steady-state kinetics, thioltransferase assay. It counts as biochemical. The settings on record: co-substrate GSH; 0.1 M potassium phosphate pH 6.5, 37 °C; read-out: Κm. An excerpt:
steady-state kinetics, thioltransferase assay on AtuGSTH1-1

Substrate in data set [6]: CC(C)(C)OO
Put plainly: steady-state kinetics, GSH-dependent peroxidase assay. It counts as biochemical, Agrobacterium fabrum. The following applies: co-substrate GSH, 0.1 M potassium phosphate pH 6.5, 37 °C.

Substrate in data set [7]: CC(C)(OO)c1ccccc1
The description is as above. It counts as biochemical, Agrobacterium fabrum. The following applies: co-substrate GSH, 0.1 M potassium phosphate pH 6.5, 37 °C.

`O=[N+]([O-])c1ccc(Cl)c([N+](=O)[O-])c1` [CDNB, 1-chloro-2,4-dinitrobenzene]: the Km is 1500 ± 90 µM on AtuGSTH1-1 [1], 1.9 ± 0.18 mM on AtuGSTH1-1 [2], 7.1 ± 0.76 mM at AtuGSTH1-1 [3] and 3.2 ± 0.39 mM at AtuGSTH1-1 [4].
As to `OCCSSCCO` [HEDS], the Km on AtuGSTH1-1 [5] was 4100 ± 120 µM.

B1: AtuGSTH1-1 (Agrobacterium fabrum str. C58) (protein)
chain: MSNIETVPASIEMKPNPTITVFERSPDGGRGLARDMPVRWALEEVGQPYHVRRLSFEAMKEASHLAYQPFGQIPSYEQGDLILFESGAIVMHIAQHHSGLLPEDQLRRARTVAWMFAALNTIEPSILNFTTVWLFERNEPWHEARLARTKEQLLKRLDELSAWLGDREWLEGSFSAADILMICVLRRLESSGILKDYGNLLAYVERGKARPAFKRAFDAQLAVFTAASKN
notes: homodimer by crystal symmetry
Consider B1, for which, in data set [6], the Km worked out at 1600 ± 70 µM; the kcat – broadly, the number of substrate molecules converted per active site and unit of time at saturation – was 2.495 ± 0.0868 s⁻¹. In addition, in data set [7], the Km was determined as 2700 ± 210 µM and the catalytic constant (kcat) is 5.657 ± 0.101 s⁻¹.
